Values joined by “and” are separate entries in the source; they are usually repeats but may differ in a detail not shown here. Equal values may be shown once.
Test system: CGRP release from isolated rat tracheae
Experiment: Electrical field stimulation (EFS)-evoked release of CGRP from isolated rat tracheae, radioimmunoassay
Type: cell-based
Details: for Release of CGRP into the incubation medium / Absolute release of CGRP: individual experiments 1-5; for Release of CGRP into the incubation medium, Mean / Absolute release of CGRP, Mean: mean of 5 experiments
Method: For the in vitro release experiments, a 10 mg/ml (14.62 mM; MW 684) stock solution of CYT-1010 was made in DMSO, which was further diluted with the oxygenated Krebs solution used in the organ bath: 5.5 μl of this CYT-1010 stock solution was added into 40 ml Krebs to make the highest applied 2 μM concentration of compound CYT-1010. Further dilutions to obtain the lower concentrations were prepared with Krebs solution.
The incubation media containing the respective CYT-1010 concentrations were administered in the stimulated and post-stimulated 8-min fractions.
Since even the highest, 2 μM, concentration of CYT-1010 solution contained negligible amount of DMSO, simple Krebs solution was used in the control experiments.
Rats were exsanguinated in deep anaesthesia (sodium thiobarbital, 50 mg/kg i.p.), then the whole trachea was removed and cleaned of fat and adhering connective tissues. Tracheae from two rats were placed into the same 1.8 ml organ bath to obtain sufficient amount of released peptide and perfused (1 ml/min) with pH-(7.2) controlled oxygenized Krebs solution for 60 minutes (equilibration period) at 37° C. temperature. After discontinuation of the flow, the solution was changed three times for eight minutes to produce pre-stimulated, stimulated, post-stimulated fractions.
Electrical field stimulation (40 V, 0.1 ms, 10 Hz for 120 s; 1200 pulses) was performed to elicit neurotransmitter release at the beginning of the second 8-minute period. Stimulation with 0.1 ms pulse width selectively activates very fast Na^+ channels, which are only present in the membrane of neural structures (Birmingham and Wilson, 1963; Coburn and Tomita 1973; Szolcsányi and Barthó, 1982); therefore, it excites nerve endings without influencing other excitable cells in the tracheae such as smooth muscle cells.
Krebs solution was used in the pre-stimulated fraction for determining the basal CGRP outflow. During the stimulated and post-stimulated fractions, the incubation medium contained the examined concentrations of CYT-1010 (10, 100, 500, 1000 and 2000 nM) in separate experiments, and only one concentration was applied to the same tracheae to avoid neuropeptide depletion. In each group, 5 experiments were performed in parallel in 5 perfusion systems to provide n=5 data per group (10 tracheae per group).
60 male Wistar rats (250-300 g) altogether were divided into 6 experimental groups: Group 1: controls (n=10); Group 2: 10 nM CYT-1010 (n=10); Group 3: 100 nM CYT-1010 (n=10); Group 4: 500 nM CYT-1010 (n=10); Group 5: 1000 nM CYT-1010 (n=10); and Group 6: 2000 nM CYT-1010 (n=10). The total study was performed on three experimental days, two groups every occasion.
Calcitonin gene-related peptide (CGRP) and substance P (SP) concentrations were determined from 400-400 μl samples of organ fluid of the preparations by means of radioimmunoassay methods described in Nemeth et al., 1996, 1998, 1999, 2006; Helyes et al., 1997, 2001, 2006; Borzsei et al., 2008). Each of these publications is incorporated herein by reference in its entirety.
The released amount of the peptides CGRP and SP was calculated as fmol peptide per mg wet tissue (trachea). The absolute release in response to EFS in each experiment was calculated by adding peptide release in the second and third 8-min fractions and then taking off the basal release measured in the first (pre-stimulated) fraction. The detection limits of the RIA assays were 0.2 fmol/tube and 2 fmol/tube for CGRP and SP, respectively.

## NC(Cc1ccc(O)cc1)C(=O)NC1CCCCNC(=O)C(Cc2ccccc2)NC(=O)C(Cc2c[nH]c3ccccc23)NC1=O [CYT-1010, H-Tyr-c-[D-Lys-Trp-Phe]]
10 nM
  Effect on CGRP release in the third, post-stimulated fraction: did not influence
  Absolute release of CGRP: 0.762 fmol/mg wet tissue and 0.650 fmol/mg wet tissue and 0.201 fmol/mg wet tissue and 0.001 fmol/mg wet tissue and 0.706 fmol/mg wet tissue
  Absolute release of CGRP, Mean: 0.464 fmol/mg wet tissue
10 nM, after stimulation
  CGRP release, % increase above baseline: 105.75%
10 nM, after stimulation (post-stimulated 8-min fraction)
  Release of CGRP into the incubation medium: 0.602 fmol/mg wet tissue and 0.730 fmol/mg wet tissue and 0.193 fmol/mg wet tissue and 0.204 fmol/mg wet tissue and 0.528 fmol/mg wet tissue
10 nM, after stimulation (post-stimulated fraction)
  Release of CGRP into the incubation medium, Mean: 0.451 fmol/mg wet tissue
10 nM, before stimulation
  CGRP release, % increase above baseline: 0.00%
10 nM, before stimulation (pre-stimulated 8-min fraction)
  Release of CGRP into the incubation medium: 0.220 fmol/mg wet tissue and 0.250 fmol/mg wet tissue and 0.146 fmol/mg wet tissue and 0.256 fmol/mg wet tissue and 0.226 fmol/mg wet tissue
10 nM, before stimulation (pre-stimulated fraction)
  Release of CGRP into the incubation medium, Mean: 0.219 fmol/mg wet tissue
10 nM, during stimulation
  CGRP release, % increase above baseline: 105.75%
10 nM, during stimulation (stimulated 8-min fraction)
  Release of CGRP into the incubation medium: 0.600 fmol/mg wet tissue and 0.420 fmol/mg wet tissue and 0.299 fmol/mg wet tissue and 0.308 fmol/mg wet tissue and 0.630 fmol/mg wet tissue
10 nM, during stimulation (stimulated fraction)
  Release of CGRP into the incubation medium, Mean: 0.451 fmol/mg wet tissue
100 nM, after stimulation
  CGRP release, % increase above baseline: 39.26%
100 nM, after stimulation (post-stimulated 8-min fraction)
  Release of CGRP into the incubation medium: 0.284 fmol/mg wet tissue and 0.135 fmol/mg wet tissue and 0.267 fmol/mg wet tissue and 0.231 fmol/mg wet tissue and 0.226 fmol/mg wet tissue
100 nM, after stimulation (post-stimulated fraction)
  Release of CGRP into the incubation medium, Mean: 0.229 fmol/mg wet tissue
100 nM, before stimulation
  CGRP release, % increase above baseline: 0.00%
100 nM, before stimulation (pre-stimulated 8-min fraction)
  Release of CGRP into the incubation medium: 0.243 fmol/mg wet tissue and 0.129 fmol/mg wet tissue and 0.128 fmol/mg wet tissue and 0.138 fmol/mg wet tissue and 0.183 fmol/mg wet tissue
100 nM, before stimulation (pre-stimulated fraction)
  Release of CGRP into the incubation medium, Mean: 0.164 fmol/mg wet tissue
100 nM, during stimulation
  CGRP release, % increase above baseline: 184.81%
100 nM, during stimulation (stimulated 8-min fraction)
  Release of CGRP into the incubation medium: 0.586 fmol/mg wet tissue and 0.281 fmol/mg wet tissue and 0.526 fmol/mg wet tissue and 0.390 fmol/mg wet tissue and 0.554 fmol/mg wet tissue
100 nM, during stimulation (stimulated fraction)
  Release of CGRP into the incubation medium, Mean: 0.468 fmol/mg wet tissue
100 nM
  Absolute release of CGRP: 0.384 fmol/mg wet tissue and 0.159 fmol/mg wet tissue and 0.538 fmol/mg wet tissue and 0.344 fmol/mg wet tissue and 0.415 fmol/mg wet tissue
  Absolute release of CGRP, Mean: 0.368 fmol/mg wet tissue
500 nM (maximal effect), 0.5 µM
  Inhibition of EFS-evoked absolute CGRP release: 69.9% and 70%
500 nM, after stimulation
  CGRP release, % increase above baseline: 48.89%
500 nM, after stimulation (post-stimulated 8-min fraction)
  Release of CGRP into the incubation medium: 0.137 fmol/mg wet tissue and 0.206 fmol/mg wet tissue and 0.267 fmol/mg wet tissue and 0.224 fmol/mg wet tissue and 0.213 fmol/mg wet tissue
500 nM, after stimulation (post-stimulated fraction)
  Release of CGRP into the incubation medium, Mean: 0.210 fmol/mg wet tissue
500 nM, before stimulation
  CGRP release, % increase above baseline: 0.00%
500 nM, before stimulation (pre-stimulated 8-min fraction)
  Release of CGRP into the incubation medium: 0.136 fmol/mg wet tissue and 0.148 fmol/mg wet tissue and 0.146 fmol/mg wet tissue and 0.118 fmol/mg wet tissue and 0.157 fmol/mg wet tissue
500 nM, before stimulation (pre-stimulated fraction)
  Release of CGRP into the incubation medium, Mean: 0.141 fmol/mg wet tissue
500 nM, during stimulation
  CGRP release, % increase above baseline: 70.52%
500 nM, during stimulation (stimulated 8-min fraction)
  Release of CGRP into the incubation medium: 0.162 fmol/mg wet tissue and 0.301 fmol/mg wet tissue and 0.304 fmol/mg wet tissue and 0.192 fmol/mg wet tissue and 0.241 fmol/mg wet tissue
500 nM, during stimulation (stimulated fraction)
  Release of CGRP into the incubation medium, Mean: 0.240 fmol/mg wet tissue
500 nM
  Absolute release of CGRP: 0.028 fmol/mg wet tissue and 0.212 fmol/mg wet tissue and 0.279 fmol/mg wet tissue and 0.181 fmol/mg wet tissue and 0.140 fmol/mg wet tissue
  Absolute release of CGRP, Mean: 0.168 fmol/mg wet tissue
1000 nM, 1 µM
  Inhibition of EFS-evoked absolute CGRP release: 66.3% and 66%
2000 nM
  Inhibition of EFS-evoked absolute CGRP release: 49.1%
1 microM, after stimulation
  CGRP release, % increase above baseline: 29.82%
1 microM, after stimulation (post-stimulated 8-min fraction)
  Release of CGRP into the incubation medium: 0.386 fmol/mg wet tissue and 0.162 fmol/mg wet tissue and 0.130 fmol/mg wet tissue (2×) and 0.121 fmol/mg wet tissue
1 microM, after stimulation (post-stimulated fraction)
  Release of CGRP into the incubation medium, Mean: 0.186 fmol/mg wet tissue
1 microM, before stimulation
  CGRP release, % increase above baseline: 00.0%
1 microM, before stimulation (pre-stimulated 8-min fraction)
  Release of CGRP into the incubation medium: 0.262 fmol/mg wet tissue and 0.135 fmol/mg wet tissue and 0.108 fmol/mg wet tissue (2×) and 0.102 fmol/mg wet tissue
1 microM, before stimulation (pre-stimulated fraction)
  Release of CGRP into the incubation medium, Mean: 0.143 fmol/mg wet tissue
1 microM, during stimulation
  CGRP release, % increase above baseline: 101.59%
1 microM, during stimulation (stimulated 8-min fraction)
  Release of CGRP into the incubation medium: 0.510 fmol/mg wet tissue and 0.433 fmol/mg wet tissue and 0.170 fmol/mg wet tissue (2×) and 0.161 fmol/mg wet tissue
1 microM, during stimulation (stimulated fraction)
  Release of CGRP into the incubation medium, Mean: 0.289 fmol/mg wet tissue
1 microM
  Absolute release of CGRP: 0.371 fmol/mg wet tissue and 0.325 fmol/mg wet tissue and 0.083 fmol/mg wet tissue (2×) and 0.077 fmol/mg wet tissue
  Absolute release of CGRP, Mean: 0.188 fmol/mg wet tissue
2 microM, after stimulation
  CGRP release, % increase above baseline: −4.59%
2 microM, after stimulation (post-stimulated 8-min fraction)
  Release of CGRP into the incubation medium: 0.200 fmol/mg wet tissue and 0.161 fmol/mg wet tissue and 0.133 fmol/mg wet tissue and 0.018 fmol/mg wet tissue and 0.167 fmol/mg wet tissue
2 microM, after stimulation (post-stimulated fraction)
  Release of CGRP into the incubation medium, Mean: 0.136 fmol/mg wet tissue
2 microM, before stimulation
  CGRP release, % increase above baseline: 0.00%
2 microM, before stimulation (pre-stimulated 8-min fraction)
  Release of CGRP into the incubation medium: 0.102 fmol/mg wet tissue and 0.231 fmol/mg wet tissue and 0.097 fmol/mg wet tissue and 0.148 fmol/mg wet tissue and 0.134 fmol/mg wet tissue
2 microM, before stimulation (pre-stimulated fraction)
  Release of CGRP into the incubation medium, Mean: 0.142 fmol/mg wet tissue
2 microM, during stimulation
  CGRP release, % increase above baseline: 204.09%
2 microM, during stimulation (stimulated 8-min fraction)
  Release of CGRP into the incubation medium: 0.198 fmol/mg wet tissue and 0.584 fmol/mg wet tissue and 0.388 fmol/mg wet tissue and 0.645 fmol/mg wet tissue and 0.353 fmol/mg wet tissue
2 microM, during stimulation (stimulated fraction)
  Release of CGRP into the incubation medium, Mean: 0.433 fmol/mg wet tissue
2 microM
  Absolute release of CGRP: 0.192 fmol/mg wet tissue and 0.284 fmol/mg wet tissue and 0.326 fmol/mg wet tissue and 0.366 fmol/mg wet tissue and 0.253 fmol/mg wet tissue
  Absolute release of CGRP, Mean: 0.284 fmol/mg wet tissue
10-2000 nM added to the second and third fractions
  Effect on stimulation-evoked CGRP release: significantly inhibited
100 and 500 nM
  Effect on CGRP release in the third, post-stimulated fraction: significantly inhibited
Sigmoidal concentration-response curve, non-linear least square fit, 10-2000 nM, read-out: EC50 for inhibition of electrically-evoked CGRP release
  EC50: 40.6 nM
Two highest concentrations (1000 and 2000 nM)
  Effect on CGRP release in the third, post-stimulated fraction: abolished

From US11324798B2, “Materials and methods for treatment of inflammation” (CYTOGEL PHARMA, LLC, priority 2010, dated 2022)
